Source: PubChem BioAssay (NCI)
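Growth conditions: 96-well plates. Treatment: test compound, 48 hours, 5 concentrations. Analysis: linear interpolation between bracketing concentrations; unreached endpoints set to highest concentration. TGI marks complete inhibition of growth.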

What was measured:
Experiment in all cases: NCI tumour cell line growth inhibition, 48 h
SK-MEL-28 melanoma = test system: SK-MEL-28 melanoma
LOX IMVI melanoma = test system: LOX IMVI melanoma
TK-10 renal = test system: TK-10 renal
HOP-92 NSCLC = test system: HOP-92 NSCLC
PC-3 prostate = test system: PC-3 prostate
MDA-MB-435 = test system: MDA-MB-435
MCF7 breast = test system: MCF7 breast
SNB-19 CNS = test system: SNB-19 CNS
UACC-257 melanoma = test system: UACC-257 melanoma
NCI/ADR-RES ovarian = test system: NCI/ADR-RES ovarian
KM12 colon = test system: KM12 colon
A498 renal = test system: A498 renal
HOP-62 NSCLC = test system: HOP-62 NSCLC
SW-620 colon = test system: SW-620 colon
UACC-62 melanoma = test system: UACC-62 melanoma
U251 CNS = test system: U251 CNS
SF-295 CNS = test system: SF-295 CNS
MOLT-4 leukemia = test system: MOLT-4 leukemia
NCI-H522 lung = test system: NCI-H522 lung

Row | Compound | TGI (SK-MEL-28 melanoma) [µM] | TGI (LOX IMVI melanoma) [µM] | TGI (TK-10 renal) [µM] | TGI (HOP-92 NSCLC) [µM] | TGI (PC-3 prostate) [µM] | TGI (MDA-MB-435) [µM] | TGI (MCF7 breast) [µM] | TGI (SNB-19 CNS) [µM] | TGI (UACC-257 melanoma) [µM] | TGI (NCI/ADR-RES ovarian) [µM] | TGI (KM12 colon) [µM] | TGI (A498 renal) [µM] | TGI (HOP-62 NSCLC) [µM] | TGI (SW-620 colon) [µM] | TGI (UACC-62 melanoma) [µM] | TGI (U251 CNS) [µM] | TGI (SF-295 CNS) [µM] | TGI (MOLT-4 leukemia) [µM] | TGI (NCI-H522 lung) [µM]
1 | CCOC(=O)CC[C@H](NC(=O)N[C@H](C)c1ccccc1)C(=O)OCC | 43.8 | > 100 | > 100 | 39.3 | > 100 | 69.1 | > 100 | > 100 | 46.6 | 75.9 | > 100 | > 100 | > 100 | > 100 | 34.8 | > 100 | > 100 | 52.5 | 
2 | COc1ccc2[nH]c3c(c2c1)CC(=O)N1CCCC(CC3O)C1 (stereo not drawn) | > 100 | > 100 | > 100 | > 100 | > 100 | > 100 | > 100 | > 100 | > 100 | > 100 | > 100 | > 100 |  | > 100 | > 100 | > 100 | > 100 |  | > 100
3 | Cc1ccc(Cc2nn(C)c(=O)n2N)cc1 | > 100 | > 100 | > 100 | > 100 | > 100 | > 100 | > 100 | > 100 | > 100 | > 100 | > 100 | > 100 |  | > 100 | > 100 | > 100 | > 100 |  | 
4 | CC(=O)OCC1OC(c2c(OC(C)=O)cc(C)c3c(=O)cc(/C(C(C)=O)=C(\C)O)oc23)C(OC(C)=O)C(OC(C)=O)C1OC(C)=O (stereo not drawn) | > 100 |  | > 100 | > 100 | > 100 | > 100 | > 100 | > 100 | > 100 | > 100 | > 100 |  | > 100 | > 100 | > 100 | > 100 | > 100 | > 100 | > 100
5 | Cn1c(=O)c2nc3c(=O)n(C)c(=O)n(CC(N)=O)c3nc2n(C)c1=O | > 100 | > 100 | > 100 | > 100 | > 100 | > 100 | > 100 | > 100 | > 100 | > 100 | > 100 | > 100 | > 100 | > 100 | > 100 | > 100 | > 100 |  | > 100
6 | C/C(N)=C/C(=O)c1[nH]c(C(=O)O)cc1C1CCN(Cc2ccccc2)C1=O (stereo not drawn) | 72.5 |  | > 100 | 55 | > 100 | > 100 | 95.8 | > 100 | 78.5 | 51.6 | > 100 | > 100 | 42.8 | > 100 | 55.6 | > 100 | 49.6 | 57.9 | 49.2
7 | CN(C)Cc1cc(C(=O)/C=C/c2ccc(Cl)c(Cl)c2)cc(CN(C)C)c1O | 10.3 | 2 |  | 3.85 | 5.32 | 13.2 | 12.3 | 11.6 | 5.1 | 7.85 | 4.73 | 11.1 | 6.45 | 3.19 |  | 13.6 | 12.1 | 10.5 | 3.31
8 | COc1ccc2nc3c([N+](=O)[O-])ccc4c3c(c2c1)NCCN4CCN(C)C | 3.08 | 1.45 | 4.75 | 2.73 | 1.86 | 3.49 | > 10 | 2.27 | 4.58 | 3.25 | 1.46 | 3.12 | 3.44 | 1.98 | 1.96 | 2.54 | 1.69 | 7.67 | 
9 | Cc1cc(=O)oc2c(CNC(CO)C(=O)O)c(O)ccc12 (stereo not drawn) | > 100 | > 100 | > 100 | > 100 | > 100 | > 100 | > 100 | > 100 | > 100 | > 100 | > 100 |  | > 100 | > 100 | > 100 | > 100 | > 100 | > 100 | > 100
10 | COc1cc2c(c(O)c1OC)C(=O)[C@@H]1CCC(=O)N1C2c1ccccc1 (stereo partly drawn) | > 100 | > 100 | > 100 |  | > 100 | > 100 | > 100 | > 100 | > 100 | > 100 | > 100 | > 100 | > 100 | > 100 | > 100 | > 100 | > 100 | > 100 | > 100
11 | CC(C)CCNC(=O)C(CC(C)C)NC(=O)[C@H]1O[C@@H]1C(=O)O (stereo partly drawn) | > 100 |  |  | > 100 | > 100 | > 100 | > 100 | > 100 | > 100 | > 100 | > 100 | > 100 | > 100 | > 100 | > 100 | > 100 | > 100 | > 100 | > 100
12 | CC(NCc1c(O)ccc2ccc(=O)oc12)C(=O)O (stereo not drawn) | > 100 | > 100 | > 100 | > 100 | > 100 | > 100 | > 100 | > 100 | > 100 | > 100 | > 100 |  | > 100 | > 100 | > 100 | > 100 | > 100 | > 100 | > 100
13 | O=C(NCCC1CN(C(=O)OCc2ccccc2)c2ccccc21)OCc1ccccc1 (stereo not drawn) | > 100 |  | > 100 | > 100 | > 100 | > 100 | > 100 | > 100 | > 100 | > 100 | > 100 | > 100 | > 100 | > 100 | > 100 | > 100 | > 100 | > 100 | > 100
14 | O=c1[nH]c(N/N=C\C(=N/Nc2nc3ccccc3c(=O)[nH]2)C(O)C(O)C(O)CO)nc2ccccc12 (stereo not drawn) | > 100 | > 100 | > 100 | > 100 | > 100 | > 100 | > 100 | > 100 | > 100 | > 100 | > 100 | > 100 | > 100 | > 100 | > 100 | > 100 | > 100 | > 100 | 
15 | CCOC(=O)CC1(Cc2ccc(OCc3ccccc3)cc2)C(=O)OC(c2ccccc2)N1C(=O)c1ccccc1 (stereo not drawn) | > 100 | > 100 | > 100 | > 100 | > 100 | > 100 | > 100 | > 100 | > 100 | > 100 | > 100 |  | > 100 | > 100 | > 100 | > 100 | > 100 | > 100 | > 100
16 | COC(=O)c1cc(=O)n(-c2ccc3nn(C)nc3c2)cc1C(=O)OC | > 100 |  | > 100 | > 100 | > 100 | > 100 | > 100 | > 100 | > 100 | > 100 | > 100 | > 100 | > 100 | > 100 | > 100 | > 100 | > 100 | > 100 | > 100
17 | O=C(NNC1=NCCCN1)c1ccco1 | > 100 | > 100 | > 100 | > 100 | > 100 | > 100 | > 100 | > 100 | > 100 | > 100 | > 100 |  | > 100 | > 100 | > 100 | > 100 | > 100 | > 100 | > 100
18 | Cc1c2c(nc3ccccc13)C(=O)c1cccnc1C2=O | 94.7 | 35.2 | > 100 | > 100 | 73.1 | 3.2 | 30.1 | 92.3 | 27.2 | > 100 | > 100 |  | > 100 | > 100 | 10.1 | > 100 | 97.1 | 64.7 | 47.8
19 | CCOC(=O)C1(C#N)C(=O)c2cc[n+](CC[n+]3ccc4c(c3)C(=O)C(C#N)(C(=O)OCC)C4=O)cc2C1=O (stereo not drawn) | > 100 | > 100 |  | > 100 | > 100 | > 100 | > 100 | > 100 | > 100 | > 100 | > 100 | > 100 |  | > 100 | > 100 | > 100 | > 100 | > 100 | > 100
20 | O=c1cc(NNCc2ccccc2)[nH]c(=O)[nH]1 | > 100 | > 100 | > 100 | > 100 | > 100 | > 100 | > 100 | > 100 | > 100 | > 100 | > 100 | > 100 | > 100 | > 100 |  | > 100 | > 100 | > 100 | 
21 | CC(C)(C)C1CCC2c3c([nH]c4ccccc34)C3C(=O)N(c4ccccc4[N+](=O)[O-])C(=O)C3C2C1 (stereo not drawn) |  | 31.4 | 43.3 | 9.1 | 26.1 | > 100 | 39.1 | 82.5 | 90.6 | > 100 |  | 36.5 | 21.5 | 27 | 28.2 | 40.3 | 31.2 |  | 
22 | Oc1[nH]c(=S)[nH]c1/C=C1/C(c2ccccc2)=Nc2ccccc21 | 30.3 | 24.3 | 44.5 |  | 25.6 | 26.7 | 28.5 | 76.3 | 29 | 51.7 | 29.3 | 25.3 | 29.1 | 31.9 | 26.4 | 34.9 | 26.5 | 32.1 | 26.3
23 | O=C(O)C1(Cc2ccccc2)Cc2cc3c(cc2C1)CCC3 | > 100 | > 100 | > 100 | 94 | > 100 | > 100 | > 100 | > 100 | > 100 | > 100 | > 100 |  | > 100 | > 100 | > 100 | > 100 | > 100 | > 100 | > 100
24 | O=[N+]([O-])c1cccc(-c2ncc3c(n2)-c2ccccc2C3)c1 | > 100 |  | > 100 | > 100 | > 100 | > 100 | > 100 | 72.4 | > 100 | > 100 | > 100 |  |  | > 100 | > 100 | > 100 | > 100 | > 100 | > 100
25 | CCOC(=O)c1ccc(C(=O)n2ccnc2)[nH]1 | > 100 | > 100 | > 100 |  | > 100 | > 100 | > 100 | > 100 | > 100 | > 100 | > 100 | > 100 | > 100 | > 100 | > 100 | > 100 | > 100 | > 100 | > 100
26 | CC12CCC(=O)N1c1cncnc1N2 (stereo not drawn) |  | > 10 | > 10 | > 10 | > 10 | > 10 | > 10 | > 10 | > 10 | > 10 | > 10 |  |  | > 10 | > 10 | > 10 | > 10 | > 10 | > 10
